Measurements as given in US20220023306A1, “USE OF A PPAR-DELTA AGONIST IN THE TREATMENT OF FATTY ACID OXIDATION DISORDERS (FAOD)” (Reneo Pharmaceuticals, Inc., priority 2019, published 2022).

What was measured:
Format in all cases: cell-based
hPPARα = target: T1, hPPARα (Homo sapiens, UniProt Q07869); test: PPAR transient transactivation assay, hPPARα
T1 construct: expressed in transfected cells; host or cells: HEK293
T1 sequence (Q07869 239-466 limits assumed): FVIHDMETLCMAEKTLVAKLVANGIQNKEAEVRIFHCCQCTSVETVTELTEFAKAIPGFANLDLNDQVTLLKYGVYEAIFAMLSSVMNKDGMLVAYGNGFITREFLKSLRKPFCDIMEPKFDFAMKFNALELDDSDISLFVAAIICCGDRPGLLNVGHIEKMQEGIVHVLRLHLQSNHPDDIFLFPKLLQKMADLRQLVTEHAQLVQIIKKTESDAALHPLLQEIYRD
Protocol: (§1) “Activation” herein is defined as the abovementioned downstream response, which in the case of PPAR's is gene transcription. Gene transcription, in some cases, is measured indirectly as downstream production of proteins reflective of the activation of the particular PPAR subtype under study. Alternatively, an artificial reporter construct, in some cases, is employed to study the activation of the individual PPAR's expressed in cells. The ligand binding domain of the particular receptor to be studied, in some embodiments, is fused to the DNA binding domain of a transcription factor, which produces convenient laboratory readouts, such as the yeast GAL4 transcription factor DNA binding domain. The fusion protein, in some cases, is transfected into a laboratory cell line along with a Gal4 enhancer, which effects the expression of the luciferase protein. When such a system is transfected into a laboratory cell line, binding of a receptor agonist to the fusion protein will result in light emission.
(§2) The PPAR transient transactivation assay, in some cases, is based on transient transfection into human HEK293 cells of two plasmids encoding a chimeric test protein and a reporter protein respectively. […] The amount of luciferase protein is measured by light emission after addition of the appropriate substrate. […]

hPPARγ = target: T2, hPPARγ (Homo sapiens, UniProt P37231); test: PPAR transient transactivation assay, hPPARγ
T2 construct: expressed in transfected cells; host or cells: HEK293
T2 sequence (P37231 238-503 limits assumed): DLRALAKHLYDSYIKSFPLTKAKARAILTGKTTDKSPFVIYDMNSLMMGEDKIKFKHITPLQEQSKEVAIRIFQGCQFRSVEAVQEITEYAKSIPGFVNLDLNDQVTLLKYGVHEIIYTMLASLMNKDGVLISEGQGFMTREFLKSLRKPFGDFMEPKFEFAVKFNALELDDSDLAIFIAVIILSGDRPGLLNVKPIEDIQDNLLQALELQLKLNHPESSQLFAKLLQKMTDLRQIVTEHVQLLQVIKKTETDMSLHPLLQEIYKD
Protocol: as §1, §2

LXRβ = target: T3, LXRβ (Homo sapiens, UniProt P55055); test: activity on nuclear receptor LXRβ
T3 sequence (P55055 1-460): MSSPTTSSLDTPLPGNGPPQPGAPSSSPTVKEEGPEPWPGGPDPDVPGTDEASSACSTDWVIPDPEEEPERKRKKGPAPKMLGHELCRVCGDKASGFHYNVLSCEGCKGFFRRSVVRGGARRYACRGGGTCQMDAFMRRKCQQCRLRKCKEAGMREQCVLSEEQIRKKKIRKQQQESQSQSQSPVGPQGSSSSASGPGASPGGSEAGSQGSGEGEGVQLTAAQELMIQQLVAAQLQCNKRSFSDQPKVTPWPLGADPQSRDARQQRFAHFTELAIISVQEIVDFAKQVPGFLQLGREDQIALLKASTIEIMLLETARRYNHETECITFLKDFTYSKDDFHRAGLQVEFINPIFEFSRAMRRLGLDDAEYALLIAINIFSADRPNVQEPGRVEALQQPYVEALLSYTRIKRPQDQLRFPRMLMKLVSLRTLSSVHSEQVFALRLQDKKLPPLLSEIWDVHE

human muscle cell lines = test: fatty acid oxidation in human muscle cell lines

Question: Which “activity on PPARα in transactivation assays” value (hPPARα) does the source give for Cc1cc(OC/C=C(/c2ccc(F)cc2)c2ccc(C#CCN3CCOCC3)cc2)ccc1OCC(=O)O [Compound 1, (E)-[4-[3-(4-Fluorophenyl)-3-[4-[3-(morpholin-4-yl)propynyl]phenyl]allyloxy]-2-methyl-phenoxy]acetic acid] here?
Answer: The value was “negligible activity”.

Question: What about the “type of agonism on PPARα” value (hPPARα) of the same molecule?
Answer: The value was “partial agonist”.

Question: And the “activity on PPARγ in transactivation assays” value (hPPARγ)?
Answer: Its value is “negligible activity”.

Question: What about the “type of agonism on PPARγ” value (hPPARγ) of the same molecule?
Answer: Its value is “partial agonist”.

Question: What about the “activity on LXRβ” value (LXRβ) of the same molecule?
Answer: Its value is “did not show any”.

Question: What about the fatty acid oxidation (human muscle cell lines) of the same molecule?
Answer: The fatty acid oxidation was “dose-dependent increase”.
